A short description of series [1]: solubility of the prodrug compared with atovaquone. The class given is physicochemical. The source says: (§1) The Atovaquone prodrug compound of formula (I) of the present invention overcomes the problems associated with poor solubility and variable bioavailability of atovaquone.
Series [2] can be described thus: plasma levels of atovaquone after administration of the prodrug. To be noted: in vivo.
From the text: as §1

The nature of series [3]: in-vitro and animal study of toxicity. The class given is in vivo.
From the text: as §1

Each structure is given as a SMILES string.

With `Cc1oc(=O)oc1COC1=C(C2CCC(c3ccc(Cl)cc3)CC2)C(=O)c2ccccc2C1=O` (stereo not drawn) [compound of formula (I), 3-(5-methyl-2-oxo-1,3-dioxol-4-yl)methyloxy-2-trans-[(4-chlorophenyl)cyclohexyl][1,4]naphthaquinone], in series [1], the “solubility compared with atovaquone” value is “better solubility than atovaquone”. Moreover, the “plasma levels of atovaquone compared with levels after administration of atovaquone” value in series [2] is reported as “non-variable plasma levels of atovaquone”. For the same molecule, in series [3], the toxicity entry is given as “toxicity in the acceptable range”.

These data come from US9169232B2, “3-(5-methyl-2-oxo-l, 3-dioxol-4-yl) methyloxy-2-trans-[(4-chloro phenyl) cyclohexyl][1,4]naphthaquinone-atovaquone prodrug” (Alkem Laboratories Limited, priority 2011, dated 2015).
